Laboratory results published in US10555987B2, “GHRH agonists for the treatment of ischemic disorders” (UNIVERSITY OF MIAMI, priority 2012, dated 2020).
Non-standard residues stand in square brackets, D forms with d. Residues, ends and D or L forms follow the SMILES beside them. *: point of attachment. Desaminotyrosyl = O=C(CCc1ccc(O)cc1)*; hArg = N=C(N)NCCCC[C@H](N)C(=O)O; Nle = CCCC[C@H](N)C(=O)O; Orn = NCCC[C@H](N)C(=O)O; Abu = CC[C@H](N)C(=O)O; Aoc = NCCCCCCCC(=O)O

Target: T1, GHRH receptor (Homo sapiens, UniProt Q02643)
T1 sequence (Q02643 23-423): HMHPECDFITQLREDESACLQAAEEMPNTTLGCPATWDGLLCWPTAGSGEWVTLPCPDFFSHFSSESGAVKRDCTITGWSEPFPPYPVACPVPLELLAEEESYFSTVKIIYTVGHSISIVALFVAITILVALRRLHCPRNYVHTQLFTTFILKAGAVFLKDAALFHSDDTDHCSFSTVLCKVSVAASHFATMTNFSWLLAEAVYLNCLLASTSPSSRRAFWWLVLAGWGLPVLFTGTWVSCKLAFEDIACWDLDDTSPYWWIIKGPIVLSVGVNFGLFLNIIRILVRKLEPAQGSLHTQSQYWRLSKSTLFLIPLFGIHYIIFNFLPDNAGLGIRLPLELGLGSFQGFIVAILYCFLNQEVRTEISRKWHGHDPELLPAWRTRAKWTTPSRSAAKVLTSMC
Test: GHRH receptor binding, competition with 125I-labeled [His1,Nle27]hGHRH(1-32)NH2, human pituitary membrane homogenates (Table 6)
Design: Normal human pituitaries were purchased from the National Hormone and Peptide Program; tissue National Hormone and Peptide Program (A.F. Parlow, Harbor-UCLA Medical Center, Torrance, Calif.); host or cells: normal human pituitary, membrane fraction
Details: for Relative affinity (Binding potency) vs GHRH: GHRH(1-29) = 1, Table 6; for Relative affinity (Binding potency) vs JI-38: JI-38 = 1, Table 6
From the text: Normal human pituitaries were purchased from the National Hormone and Peptide Program (A.F. Parlow, Los Angeles, County Harbor-UCLA Medical Center, Torrance, Calif.).

Compound	Relative affinity (Binding potency) vs GHRH	Relative affinity (Binding potency) vs JI-38
CCCC[C@H](NC(=O)[C@@H](NC(=O)[C@H](CC(=O)O)NC(=O)[C@H](CCC(N)=O)NC(=O)[C@H](CC(C)C)NC(=O)[C@H](CC(C)C)NC(=O)[C@H](CCCN)NC(=O)[C@H](CCCNC(=N)N)NC(=O)[C@H](C)NC(=O)[C@H](CO)NC(=O)[C@H](CC(C)C)NC(=O)[C@H](CCC(N)=O)NC(=O)[C@H](CC)NC(=O)[C@H](CC(C)C)NC(=O)[C@@H](NC(=O)[C@H](CCCN)NC(=O)[C@H](CCCNC(=N)N)NC(=O)[C@H](Cc1ccc(O)cc1)NC(=O)[C@H](CO)NC(=O)[C@H](CCC(N)=O)NC(=O)[C@@H](NC(=O)[C@H](Cc1ccccc1)NC(=O)[C@@H](NC(=O)[C@H](C)NC(=O)[C@H](CC(=O)O)NC(=O)[C@@H](C)NC(=O)CCc1ccc(O)cc1)[C@@H](C)CC)[C@@H](C)O)C(C)C)[C@@H](C)CC)C(=O)N[C@@H](CC(=O)O)C(=O)N[C@@H](CCCNC(=N)N)C(=O)NCCCCCCCC(N)=O [Peptide P-21304, [Dat^1, D-Ala^2, Gln^8, Orn^12, Abu^15, Orn^21, Nle^27, Asp^28, Amc^30]hGHRH(1-30)NH2] (Desaminotyrosyl-[dA]DAIFTQSYR[Orn]VL[Abu]QLSAR[Orn]LLQDI[Nle]DR[Aoc]-NH2)	74.0	24.4
CCCC[C@H](NC(=O)[C@@H](NC(=O)[C@H](CC(=O)O)NC(=O)[C@H](CCC(N)=O)NC(=O)[C@H](CC(C)C)NC(=O)[C@H](CC(C)C)NC(=O)[C@H](CCCN)NC(=O)[C@H](CCCNC(=N)N)NC(=O)[C@H](C)NC(=O)[C@H](CO)NC(=O)[C@H](CC(C)C)NC(=O)[C@H](CCC(N)=O)NC(=O)[C@H](CC)NC(=O)[C@H](CC(C)C)NC(=O)[C@@H](NC(=O)[C@H](CCCN)NC(=O)[C@H](CCCNC(=N)N)NC(=O)[C@H](Cc1ccc(O)cc1)NC(=O)[C@H](CO)NC(=O)[C@H](CC(N)=O)NC(=O)[C@@H](NC(=O)[C@H](Cc1ccccc1)NC(=O)[C@@H](NC(=O)[C@H](C)NC(=O)[C@H](CC(=O)O)NC(=O)[C@@H](C)NC(=O)CCc1ccc(O)cc1)[C@@H](C)CC)[C@@H](C)O)C(C)C)[C@@H](C)CC)C(=O)N[C@@H](CC(=O)O)C(=O)N[C@@H](CCCNC(=N)N)C(=O)N[C@@H](CCCCNC(=N)N)C(N)=O [Peptide P-23252, [Dat^1-D-Ala^2, Orn^12, Abu^15, Orn^21, Nle^27, Asp^28, Har^30]hGHRH(1-30)NH^2] (Desaminotyrosyl-[dA]DAIFTNSYR[Orn]VL[Abu]QLSAR[Orn]LLQDI[Nle]DR[hArg]-NH2)	42.3	13.9
CCCC[C@H](NC(=O)[C@@H](NC(=O)[C@H](CC(=O)O)NC(=O)[C@H](CCC(N)=O)NC(=O)[C@H](CC(C)C)NC(=O)[C@H](CC(C)C)NC(=O)[C@H](CCCN)NC(=O)[C@H](CCCNC(=N)N)NC(=O)[C@H](C)NC(=O)[C@H](CO)NC(=O)[C@H](CC(C)C)NC(=O)[C@H](CCC(N)=O)NC(=O)[C@H](CC)NC(=O)[C@H](CC(C)C)NC(=O)[C@@H](NC(=O)[C@H](CCCN)NC(=O)[C@H](CCCNC(=N)N)NC(=O)[C@H](Cc1ccc(O)cc1)NC(=O)[C@H](CO)NC(=O)[C@@H](NC(=O)[C@@H](NC(=O)[C@H](Cc1ccccc1)NC(=O)[C@@H](NC(=O)[C@H](C)NC(=O)[C@H](CC(=O)O)NC(=O)[C@@H](C)NC(=O)CCc1ccc(O)cc1)[C@@H](C)CC)[C@@H](C)O)[C@@H](C)O)C(C)C)[C@@H](C)CC)C(=O)N[C@@H](CC(=O)O)C(=O)N[C@@H](CCCNC(=N)N)C(=O)N[C@@H](CCCCNC(=N)N)C(N)=O [Peptide P-23254, [Dat^1, D-Ala^2, Thr^8, Orn^12, Abu^15, Orn^21, Nle^27, Asp^28, Har^30]hGHRH(1-30)NH2] (Desaminotyrosyl-[dA]DAIFTTSYR[Orn]VL[Abu]QLSAR[Orn]LLQDI[Nle]DR[hArg]-NH2)	84.5	27.8
CCCC[C@H](NC(=O)[C@@H](NC(=O)[C@H](CC(=O)O)NC(=O)[C@H](CCC(N)=O)NC(=O)[C@H](CC(C)C)NC(=O)[C@H](CC(C)C)NC(=O)[C@H](CCCN)NC(=O)[C@H](CCCNC(=N)N)NC(=O)[C@H](C)NC(=O)[C@H](CO)NC(=O)[C@H](CC(C)C)NC(=O)[C@H](CCC(N)=O)NC(=O)[C@H](CC)NC(=O)[C@H](CC(C)C)NC(=O)[C@@H](NC(=O)[C@H](CCCN)NC(=O)[C@H](CCCNC(=N)N)NC(=O)[C@H](Cc1ccc(O)cc1)NC(=O)[C@H](CO)NC(=O)[C@H](C)NC(=O)[C@@H](NC(=O)[C@H](Cc1ccccc1)NC(=O)[C@@H](NC(=O)[C@H](C)NC(=O)[C@H](CC(=O)O)NC(=O)[C@@H](C)NC(=O)CCc1ccc(O)cc1)[C@@H](C)CC)[C@@H](C)O)C(C)C)[C@@H](C)CC)C(=O)N[C@@H](CC(=O)O)C(=O)N[C@@H](CCCNC(=N)N)C(=O)N[C@@H](CCCCNC(=N)N)C(N)=O [Peptide P-23256, [Dat^1, D-Ala^2, Ala^8, Orn^12, Abu^15, Orn^21, Nle^27, Asp^28, Har^30]hGHRH(1-30)NH2] (Desaminotyrosyl-[dA]DAIFTASYR[Orn]VL[Abu]QLSAR[Orn]LLQDI[Nle]DR[hArg]-NH2)	148.0	48.7
